Consider five compounds from ChEMBL document CHEMBL3992554, “Incorporation of arginine mimetic residue into peptides for recognition of double stranded nucleic acid structure: Binding and aggregation studies” (Bioorg Med Chem, 2017).

A short description of data set [1]: Aqueous solubility of the compound in water. In kind it is physicochemical. To be noted: buffer.
Data set [2] is described as follows: Chemical stability in water at +8 degC. Format: physicochemical. To be noted: buffer.
Data set [3] can be described thus: Aggregation of the compound in water at 25 to 95 degC by UV-Visible titration method. The settings on record: buffer. In kind it is physicochemical.
The species entered for data set [4] is Bos taurus. The experiment in a line: Binding affinity to calf thymus duplex DNA in pH 7.4 sodium cacodylate buffer by UV-Visible titration method.
A short description of data set [5]: Binding affinity to poly(dA-dT)2 DNA (unknown origin) in pH 7.4 sodium cacodylate buffer by UV-Visible titration method.
Data set [6] can be described thus: Binding affinity to poly(rA).(rU) RNA duplex (unknown origin) in pH 7.4 sodium cacodylate buffer by UV-Visible titration method.
Data set [7] is described as follows: Binding affinity to poly(dA-dT)2 DNA (unknown origin) in pH 7.4 sodium cacodylate buffer at peptide to polynucleotide ratio of 0.2 to 2.1 by CD titration method.
The species named for data set [8] is Bos taurus. The experiment in a line: Binding affinity to calf thymus duplex DNA in pH 7.4 sodium cacodylate buffer at peptide to polynucleotide ratio of 0.2 to 2.1 by CD titration method.
The nature of data set [9]: Binding affinity to poly(dG-dC)2 DNA (unknown origin) in pH 7.4 sodium cacodylate buffer at peptide to polynucleotide ratio of 0.2 to 2.4 by CD titration method.
Data set [10] is described as follows: Binding affinity to poly(rA).(rU) RNA duplex (unknown origin) in pH 7.4 sodium cacodylate buffer at peptide to polynucleotide ratio of 0.2 to 2.4 by CD titration method.
Data set [11] is described as follows: Binding affinity to poly(dG-dC)2 DNA (unknown origin) in pH 7.4 sodium cacodylate buffer by UV-Visible titration method.
A short description of data set [12]: Binding affinity to poly(dA-dT)2 DNA (unknown origin) in pH 7.4 sodium cacodylate buffer assessed as positive-negative bisignate ICD band at peptide to polynucleotide ratio of 0.1 to 1.7 by CD titration method.
For data set [13], the species on record is Bos taurus. The experiment in a line: Binding affinity to calf thymus duplex DNA in pH 7.4 sodium cacodylate buffer assessed as positive-negative bisignate ICD band at peptide to polynucleotide ratio of 0.2 to 1.3 by CD titration method.
Data set [14] in a line: Binding affinity to poly(dG-dC)2 DNA (unknown origin) in pH 7.4 sodium cacodylate buffer assessed as positive-negative bisignate ICD band at peptide to polynucleotide ratio of 0.1 to 1.7 by CD titration method.
A short description of data set [15]: Binding affinity to poly(rA).(rU) RNA duplex (unknown origin) in pH 7.4 sodium cacodylate buffer assessed as positive-negative bisignate ICD band at peptide to polynucleotide ratio of 0.1 to 1.7 by CD titration method.
The species named for data set [16] is Bos taurus. Briefly: Binding affinity to calf thymus duplex DNA in pH 7.4 sodium cacodylate buffer assessed as change in melting temperature at peptide to polynucleotide ratio of 0.3 by thermal denaturation assay.
A short description of data set [17]: Binding affinity to poly(dA-dT)2 DNA (unknown origin) in pH 7.4 sodium cacodylate buffer by fluorimetric titration method.
The nature of data set [18]: Binding affinity to poly(dG-dC)2 DNA (unknown origin) in pH 7.4 sodium cacodylate buffer by fluorimetric titration method.
Data set [19] in a line: Binding affinity to poly(rA).(rU) RNA duplex (unknown origin) in pH 7.4 sodium cacodylate buffer by fluorimetric titration method.
A short description of data set [20]: Binding affinity to poly(dA-dT)2 DNA (unknown origin) in pH 7.4 sodium cacodylate buffer assessed as change in melting temperature at peptide to polynucleotide ratio of 0.3 by thermal denaturation assay.
The nature of data set [21]: Binding affinity to poly(rA).(rU) RNA duplex (unknown origin) in pH 7.4 sodium cacodylate buffer assessed as change in melting temperature at peptide to polynucleotide ratio of 0.3 by thermal denaturation assay.
The species named for data set [22] is Bos taurus. Briefly: Binding affinity to calf thymus duplex DNA in pH 7.4 sodium cacodylate buffer assessed as change in melting temperature at peptide to polynucleotide ratio of 0.5 by thermal denaturation assay.
The nature of data set [23]: Binding affinity to poly(dA-dT)2 DNA (unknown origin) in pH 7.4 sodium cacodylate buffer assessed as change in melting temperature at peptide to polynucleotide ratio of 0.5 by thermal denaturation assay.
Data set [24] in a line: Binding affinity to poly(rA).(rU) RNA duplex (unknown origin) in pH 7.4 sodium cacodylate buffer assessed as change in melting temperature at peptide to polynucleotide ratio of 0.5 by thermal denaturation assay.
The species named for data set [25] is Bos taurus. Briefly: Binding affinity to calf thymus duplex DNA in pH 7.4 sodium cacodylate buffer at peptide to polynucleotide ratio of 0.1 to 0.5 by CD titration method.
A short description of data set [26]: Binding affinity to poly(dA-dT)2 DNA (unknown origin) in pH 7.4 sodium cacodylate buffer at peptide to polynucleotide ratio of <0.4 by CD titration method.
A short description of data set [27]: Binding affinity to poly(dG-dC)2 DNA (unknown origin) in pH 7.4 sodium cacodylate buffer at peptide to polynucleotide ratio of 0.1 to 0.6 by CD titration method.
The nature of data set [28]: Binding affinity to poly(rA).(rU) RNA duplex (unknown origin) in pH 7.4 sodium cacodylate buffer at peptide to polynucleotide ratio of 0.1 to 0.95 by CD titration method.
A short description of data set [29]: Binding affinity to poly(dA-dT)2 DNA (unknown origin) in pH 7.4 sodium cacodylate buffer assessed as negative induced band at peptide to polynucleotide ratio of >0.8 by CD titration method.
Data set [30] is filed under the species Bos taurus. The experiment in a line: Induction of calf thymus duplex DNA aggregation in pH 7.4 sodium cacodylate buffer at 0.3 to 0.5 equiv after 5 mins by atomic force microscopic method.
The species entered for data set [31] is Bos taurus. Briefly: Induction of calf thymus duplex DNA aggregation in pH 7.4 sodium cacodylate buffer at 0.3 to 1.5 equiv by dynamic light scattering.
The nature of data set [32]: Binding affinity to poly(dA-dT)2 DNA (unknown origin) in pH 7.4 sodium cacodylate buffer assessed as positive induced CD band at peptide to polynucleotide ratio of 0.4 by CD titration method.
Data set [33] in a line: Binding affinity to poly(dA-dT)2 DNA (unknown origin) in pH 7.4 sodium cacodylate buffer at 5.35 uM by fluorimetric titration method.
Data set [34] can be described thus: Binding affinity to poly(dG-dC)2 DNA (unknown origin) in pH 7.4 sodium cacodylate buffer at 5.35 uM by fluorimetric titration method.
A short description of data set [35]: Binding affinity to poly(rA).(rU) RNA duplex (unknown origin) in pH 7.4 sodium cacodylate buffer at 5.35 uM by fluorimetric titration method.
The species named for data set [36] is Bos taurus. The experiment in a line: Binding affinity to calf thymus duplex DNA in pH 7.4 sodium cacodylate buffer assessed as positive induced CD band at peptide to polynucleotide ratio of 0.4 by CD titration method.
Data set [37] is described as follows: Binding affinity to poly(dG-dC)2 DNA (unknown origin) in pH 7.4 sodium cacodylate buffer assessed as positive induced CD band at peptide to polynucleotide ratio of 0.4 by CD titration method.
A short description of data set [38]: Binding affinity to poly(rA).(rU) RNA duplex (unknown origin) in pH 7.4 sodium cacodylate buffer assessed as positive induced CD band at peptide to polynucleotide ratio of 0.4 by CD titration method.
A short description of data set [39]: Induction of poly(dA-dT)2 DNA aggregation (unknown origin) in pH 7.4 sodium cacodylate buffer at peptide to polynucleotide ratio of 0.5 by CD titration method.
The species named for data set [40] is Bos taurus. Briefly: Induction of calf thymus duplex DNA aggregation in pH 7.4 sodium cacodylate buffer at peptide to polynucleotide ratio of 0.5 by CD titration method.
Data set [41] in a line: Induction of poly(dG-dC)2 DNA aggregation (unknown origin) in pH 7.4 sodium cacodylate buffer at peptide to polynucleotide ratio of 0.5 by CD titration method.
The nature of data set [42]: Induction of poly(rA).(rU) RNA duplex aggregation (unknown origin) in pH 7.4 sodium cacodylate buffer at peptide to polynucleotide ratio of 0.5 by CD titration method.
The species entered for data set [43] is Bos taurus. Briefly: Binding affinity to calf thymus duplex DNA in pH 7.4 sodium cacodylate buffer by ITC.
Data set [44] can be described thus: Binding affinity to poly(dG-dC)2 DNA (unknown origin) in pH 7.4 sodium cacodylate buffer by ITC. A general note: In ITC the heat of successive injections is recorded.
Data set [45] can be described thus: Binding affinity to poly(dA-dT)2 DNA (unknown origin) in pH 7.4 sodium cacodylate buffer by ITC.
Data set [46] can be described thus: Binding affinity to poly(rA).(rU) RNA duplex (unknown origin) in pH 7.4 sodium cacodylate buffer by ITC.
A short description of data set [47]: Binding affinity to poly(dA-dT)2 DNA (unknown origin) in pH 7.4 sodium cacodylate buffer at peptide to polynucleotide ratio of 0.1 to 1.1 by CD titration method.

Each structure is given as a SMILES string. The source made the active and inactive calls. The calls are words filed in the database; no cut-off is given here. Peptide text beside a SMILES is read from it. * marks the point of attachment. Pyrrole2CO(5-CO-guanidino) = N=C(N)NC(=O)c1ccc(C(=O)*)[nH]1

On to `N=C(N)NC(=O)c1ccc(C(=O)NCCCC[C@H](NC(=O)[C@@H](N)CCCCNC(=O)c2ccc(C(=O)NC(=N)N)[nH]2)C(N)=O)[nH]1`, for which the solubility entry in data set [1] was “Soluble”. In data set [2], the Stability result is recorded as “Stable”. In [3], the Activity result is listed as “Not Active”. Moreover, the log Ks in the data set listed under Bos taurus [4] turned out to be 4.9; in data set [5], 4.6; in data set [6], 3.7. For the same compound, the result (in data set [7]; in the data set listed under Bos taurus [8]; in data set [9]; in data set [10]) was Active.
For the compound `N=C(N)NC(=O)c1ccc(C(=O)NCCCC[C@H](NC(=O)[C@H](CCCCNC(=O)c2ccc(C(=O)NC(=N)N)[nH]2)NC(=O)c2ccc(C(=O)NC(=N)N)[nH]2)C(N)=O)[nH]1`, in [1], the solubility entry is “Soluble”. Besides, in data set [2], the Stability entry is reported as “Stable”. The Activity entry in data set [3] is “Not Active”. Also, the log Ks in the data set filed under Bos taurus [4] turned out to be 4.6; in data set [11] it was 5.2; in data set [5] it was 4.8; in data set [6] it was 4.2. In addition, the result (in data set [12]; in the data set listed under Bos taurus [13]; in [14]; in [15]) was Active.
Regarding `N=C(N)NC(=O)c1ccc(C(=O)NCCCC[C@H](NC(=O)[C@H](CCCCN)NC(=O)[C@H](CCCCN)NC(=O)[C@@H](N)CCCCN)C(N)=O)[nH]1` (H-KKKK(Pyrrole2CO(5-CO-guanidino))-NH2), the solubility entry in data set [1] is “Soluble”. Further, the Stability result in [2] was “Stable”. The Activity result in data set [3] is given as “Not Active”. Besides, the ΔTm in the data set listed under Bos taurus [16] is 0.5 °C; in [20] it was 3.3 °C; in data set [21], 7.9 °C; in the data set filed under Bos taurus [22], 2.6 °C; in data set [23], 4.9 °C; in data set [24], 11.1 °C. Also, the log Ks was 6.1 in the data set listed under Bos taurus [4], 6.4 in data set [11], 5.5 in data set [5] and 5.3 in [6]. Further, the result (in data set [17]; in data set [18]; in [19]; in the data set filed under Bos taurus [25]; in data set [26]; in data set [27]) was Active. In addition, the outcome (in data set [28]; in data set [29]; in the data set filed under Bos taurus [30]; in the data set listed under Bos taurus [31]) was Active.
Consider `N=C(N)NC(=O)c1ccc(C(=O)NCCCC[C@H](NC(=O)[C@H](CCCCNC(=O)c2ccc(C(=O)NC(=N)N)[nH]2)NC(=O)[C@H](CCCCNC(=O)c2ccc(C(=O)NC(=N)N)[nH]2)NC(=O)[C@@H](N)CCCCNC(=O)c2ccc(C(=O)NC(=N)N)[nH]2)C(N)=O)[nH]1` (H-K(Pyrrole2CO(5-CO-guanidino))K(Pyrrole2CO(5-CO-guanidino))K(Pyrrole2CO(5-CO-guanidino))K(Pyrrole2CO(5-CO-guanidino))-NH2), for which the result (in data set [32]; in data set [33]; in data set [34]; in data set [35]; in the data set listed under Bos taurus [36]; in [37]) was Active. Also, the result (in [38]; in data set [39]; in the data set filed under Bos taurus [40]; in data set [41]; in [42]) was Active. The solubility result in [1] is on record as “Soluble”. Besides, in data set [2], the Stability entry is “Stable”. Besides, the Activity result in [3] is “Not Active”. Moreover, the thermal shift (ΔTm) was 0 °C in the data set filed under Bos taurus [16]; 0.6 °C in [20]; 2.1 °C in [21]; 0 °C in the data set listed under Bos taurus [22]; 0.5 °C in data set [23]; 2.4 °C in [24]. In addition, the log Ks was 5.4 in the data set listed under Bos taurus [4], 7.3 in data set [11], 5.6 in data set [5] and 7 in data set [6].
For `N=C(N)NCCC[C@H](NC(=O)[C@H](CCCNC(=N)N)NC(=O)[C@H](CCCNC(=N)N)NC(=O)[C@@H](N)CCCNC(=N)N)C(N)=O` (H-RRRR-NH2), the solubility result in [1] was “Soluble”. For the same compound, in [2], the Stability result is on record as “Stable”. Further, in data set [3], the Activity entry is on record as “Not Active”. The ΔTm came to 1.9 °C in the data set listed under Bos taurus [16]; 4.1 °C in data set [20]; 12.7 °C in data set [21]; 2.7 °C in the data set filed under Bos taurus [22]; 5 °C in [23]; 15.3 °C in data set [24]. Further, the log Ks fell in the range of 5.33 to 5.6 in the data set filed under Bos taurus [43], 5.42 to 5.5 in [44], 5.44 to 5.5 in data set [45] and 5.54 to 5.6 in data set [46]. Also, the result in data set [47] was Active.

As a reminder, the ΔTm is the change in melting temperature against a reference sample.
